From US20240215582A1, “METHODS OF CONTROLLING PLANT PATHOGENS” (Valent BioSciences LLC, priority 2022, published 2024)

Experiments:
Plasmospora viticola = assay: Efficacy on grape plants infected with Plasmospora viticola; conditions: for % control Plasmospora viticola 1DAI: 1 day after infection; for % control Plasmospora viticola 1DAI / % control Plasmospora viticola 7DBI / % control Plasmospora viticola 1DB1: grape plants; for % control Plasmospora viticola 7DBI: 7 days before infection; for % control Plasmospora viticola 1DB1: 1 day before infection
Description: Treatments occurred at either 1 day before infection (“1 DBI”), 7 days before infection (“7 DBI”) or 1 day after infection (“1 DAI”).

Erysiphe diffusa = assay: Host plant efficacy assay (soybean); format: in vivo
Pythium ultimum = assay: In vitro growth on cervinomycin-amended growth media; format: cell-based

COc1cc2oc3c(c(=O)c2cc1OC)C(=O)c1c(ccc2cc4c(c(O)c12)C(=O)N1CCOC1(C)C4)C3=O (stereo not drawn) [Cervinomycin A2, cervinomycin A2]
control of P. viticiola (summary of Table 1) (Plasmospora viticola; 13-800 ppm): significant control
% control Plasmospora viticola 1DAI (Plasmospora viticola; 13 ppm): 0%
% control Plasmospora viticola 7DBI (Plasmospora viticola; 13 ppm): 61%
% control Plasmospora viticola 1DB1 (Plasmospora viticola; 50 ppm): 100%
% control Plasmospora viticola 7DBI (Plasmospora viticola; 50 ppm): 91%
% control Plasmospora viticola 1DAI (Plasmospora viticola; 200 ppm): 0%
% control Plasmospora viticola 1DB1 (Plasmospora viticola; 200 ppm): 100%
% control Plasmospora viticola 1DAI (Plasmospora viticola; 800 ppm): 5%
% control Plasmospora viticola 1DB1 (Plasmospora viticola; 800 ppm): 100%
% control Plasmospora viticola 7DBI (Plasmospora viticola; 800 ppm): 100%
% control Erysiphe diffusa Soybean 2DAI (Erysiphe diffusa; 11.3 ppm): 0 (0 (about 0%))
% control Erysiphe diffusa Soybean 2DAI (Erysiphe diffusa; 45 ppm): 0 (0 (about 0%))
% control Erysiphe diffusa Soybean 2DAI (Erysiphe diffusa; 180 ppm): 0 (0 (about 0%))
% Control Pythium ultimum (Pythium ultimum; 0.004 ppm in growth media): 0%
% Control Pythium ultimum (Pythium ultimum; 0.016 ppm in growth media): 13%
% Control Pythium ultimum (Pythium ultimum; 0.063 ppm in growth media): 99%
% Control Pythium ultimum (Pythium ultimum; 0.25 ppm in growth media): 96%
% Control Pythium ultimum (Pythium ultimum; 1 ppm in growth media): 99%
